Counter-ions that a name gives are not always drawn.
Columns and labels:
yeast = assay: Genotoxicity in yeast
[1] = test system: human pancreatic cancer PANC1 cells; assay: Pancreatic cancer cell adhesion to basement matrix; type: cell-based
Method: (§1) Nanty-six well plates were coated with 50 μl Matrigel (1:30 diluted in PBS) at 37° C. for 1 hour.
(§2) Cancer cells, pre-labelled with fluorescent die DiI at 37° C. for 20 minutes, were washed twice with PBS and resuspended into 3×10^4 cells/ml in serum-free medium. The matrix-coated 96-well plates were washed twice with PBS before introduction of 100μ cell suspension with different concentrations of the inhibitors or PBS/DMSO (control) for 1 hour at 37° C. The plates were washed twice with PBS before three randomly selected Field of Views (FOVs) were recorded by fluorescence microscope and number of adhesion cells were quantified by Image J.
MDAMB-231 or PANC-1 cells were seeded into 6-well plate (2×10^5 cells) and cultured at 37° C. for 24 hour. Galectin-3 CRISPR Cas9 Knockout plasmid (2 μg) and galectin-3 HDR plasmid (2 μg) was mixed with Plasmid Transfection Medium (21 μl) for 5 minutes before addition to a mixture of lipofectamine STEM Transfection Reagent (STEM00001) (1 μl) and Plasmid Transfection Medium (25 μl) for 10 minutes at room temperature. The cells in the 6-well plates were washed and introduced with the Plasmid DNA/Lipofectamine STEM Transfection Reagent complex at 37° C. for 24 hour. The culture medium was replaced with fresh antibiotics-free medium for further 24 hour before introduction of 10 μg/mL puromycin-containing medium every three days. Successful co-transfection of the CRISPR/Cas9 KO Plasmid and HDR Plasmid was confirmed by expression of red fluorescence protein of the cells. Galectin-3 knockout in the cells was further confirmed by immunoblotting.

[2] = test system: human lung cancer H1975 cells; assay: Lung cancer cell adhesion to basement matrix; type: cell-based
Method: as §1, §2

[3] = test system: human colon cancer SW620 cells; assay: SW620 cell invasion through HUVECs (transwell); type: cell-based; conditions: compound 20 μM, transwells
Method: HUVECs were plated at a density of 1.5×10^4 cells in 8 μm pore transwells in 24-well plate and cultured for three days to allow formation of tight monolayer. The integrity of HUVEC monolayer was confirmed by measuring TEER and only monolayers with TEER reading>800 Ω/cm^2 were used for the invasion assay. AGA19+ or SW620 cell suspension (5×10^5 cells/ml in DMEM) was introduced with 5 μl/ml fluorescent cell labelling solution DiL for 30 min at 37° C. The fluorescence labelled cells were washed twice with PBS and resuspended into 1×10^5 cells/ml in DMEM. […] The cells at the upper side of the trans-well inserts were gently removed with cotton swabs. The cells migrated to the bottom side of the transwells were fixed with 2% paraformaldehyde for 10 min. The trans-well membrane was removed and placed on glass slides. After addition of fluorescence mounting medium containing DAPI, the fluorescence labelled cells on the membrane were quantified under a fluorescence microscope.

Galectin-4 = molecular target: T1, Galectin-4 (Homo sapiens, UniProt P56470); assay: Galectin-4 binding to asialofetuin ELISA; conditions: Gal-4 5 μg/ml, ASF 20 μg/ml
T1 construct: made in house; host or cells: E. coli
T1 sequence (P56470 1-323): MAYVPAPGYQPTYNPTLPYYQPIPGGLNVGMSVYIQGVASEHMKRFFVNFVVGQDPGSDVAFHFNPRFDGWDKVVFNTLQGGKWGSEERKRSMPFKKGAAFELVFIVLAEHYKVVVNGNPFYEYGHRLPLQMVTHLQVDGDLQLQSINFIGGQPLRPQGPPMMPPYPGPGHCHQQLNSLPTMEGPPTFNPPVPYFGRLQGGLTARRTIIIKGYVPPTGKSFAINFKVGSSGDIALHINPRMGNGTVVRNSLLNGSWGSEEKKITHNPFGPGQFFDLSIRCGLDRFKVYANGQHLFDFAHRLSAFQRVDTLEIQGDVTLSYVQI
Method: Effect of the inhibitors on galectin binding to its ligand asialo fetuin (ASF) was measured by galectin ELISA. Nanty-six well plates were coated overnight with 20 μg/ml ASF in coating buffer (15 mM Na2CO3 17 mM NaHCO3 pH 9.6.). The wells were washed twice with PBS and incubated with blocking buffer (1% BSA in PBS) for 1 hr. The supernatants were removed and replaced with 5 μg/ml recombinant human galectin without or with different concentrations of the compound inhibitors or lactose in blocking buffer for 1 hr at room temperature. The wells were washed and incubated with 1 μg/ml anti-galectin antibody for 2 hr. Following addition of HRP-conjugated secondary antibody for 1 hr, FAST OPD development solution was added for 15-20 minutes. The reaction was terminated by addition of 4M sulphuric acid. The plates were read at 492 nm (reference wavelength 595 nm) by a microplate reader.

[4] = test system: THP-1 differentiated macrophages; assay: Galectin-3-induced IL-1β secretion from macrophages (ELISA); type: cell-based; conditions: Galectin-3 10 μg/ml, various concentrations
Method: (§3) Effect of the compound inhibitors on secretion of pro-inflammatory cytokines from macrophages were assessed in THP-1 monocyte differentiated macrophages. THP-1 cells were induced to differentiation into macrophages by incubation with 10 ng/ml PMA for 48 h at 37° C. The culture medium was then replaced with fresh medium without or with 10 μg/ml galectin-3 and various concentrations of the compound inhibitors for 24 h at 37° C. The culture medium was collected and the concentrations of TNFα and IL-1β in the culture medium were determined by TNFα and IL-1β ELISA.

full-length galectin-3 = molecular target: T2, full-length galectin-3 (Homo sapiens, UniProt P17931); assay: Tryptophan Fluorescence Spectroscopy (TFS) binding affinity, full-length Galectin-3
T2 construct: made in house; host or cells: E. coli
Method: The binding affinity of the inhibitors to galectin-3 was determined by Intrinsic Tryptophan Fluorescence Spectroscopy (TFS) exactly as we described recently [Sindrewicz, P., et al., Intrinsic tryptophan fluorescence spectroscopy reliably determines galectin-ligand interactions. Sci Rep, 2019. 9(1): p. 11851]. The Galectin-3 concentration used was 10 μM and the inhibitor titration concentrations were from 0 to 224 μM. DMSO/control buffer (PBS with 2 mM EDTA) titrations were performed and used for background subtraction.

[5] = test system: human colon cancer SW620 cells; assay: LDH release cytotoxicity assay, SW620; type: cell-based
Method: SW620 cells (5×10^4 cells/ml) were seeded into 96-well plate in DMEM (and incubated at 37° C. 5% CO2 for 24 hr. HUVECs (1.0×10^5 cells/ml) was seeded in EBM medium and incubated for 24-36 hr until they formed a monolayer. Compound inhibitors at different concentrations were then introduced to the cells (10× lysis buffer was included as maximum LDH activity control) for 24 hr. The culture medium was transferred to a new plate and was mixed with equal volume of reaction mixture provided in the kit for 30 min at room temperature before the absorbance was measured at 490 nm (reference 680 nm) by a spectrophotometer.

[6] = test system: THP-1 differentiated macrophages; assay: Galectin-3-induced TNFα secretion from macrophages (ELISA); type: cell-based; conditions: Galectin-3 10 μg/ml, various concentrations
Method: as §3

T2 sequence (P17931 whole entry): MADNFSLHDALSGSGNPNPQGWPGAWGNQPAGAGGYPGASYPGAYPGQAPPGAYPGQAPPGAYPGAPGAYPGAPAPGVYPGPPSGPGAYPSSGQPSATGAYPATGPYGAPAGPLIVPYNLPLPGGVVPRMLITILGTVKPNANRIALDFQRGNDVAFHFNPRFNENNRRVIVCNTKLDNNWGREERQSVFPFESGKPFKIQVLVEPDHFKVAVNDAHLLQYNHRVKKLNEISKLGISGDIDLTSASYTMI

NC1CCN(c2nc3c(cc2F)c(=O)c(C(=O)O)cn3-c2ccc(F)cc2F)C1 (stereo not shown) [Formula X, Tosufloxacin tosylate]
Genotoxicity in yeast (yeast): no detectable genotoxicity | Effect on adhesion of galectin-3 knockout (Gal3KO) PANC1 cells ([1]; CRISPR/Cas9 Gal3KO cells): lost their inhibitory effect | Effect on adhesion of non-transfected (con) PANC1 cells ([1]; control cells): significant reduction | Inhibition of PANC1 cell adhesion to matrix ([1]; different concentrations): dose-dependent inhibition | IC50 ([2]; Homo sapiens, NCI-H1975): ~5 µM | Inhibition of H1975 cell adhesion to matrix ([2]; different concentrations): dose-dependent inhibition | Inhibition of galectin-3-mediated invasion of SW620 cells through HUVECs [3]: significant inhibition | Effect on Galectin-4 binding to asialofetuin (Galectin-4): does not affect binding | Inhibition of galectin-3-induced IL-1β secretion [4]: dose-dependent inhibition | Kd (full-length galectin-3): 5 to 7 µM | Cytotoxicity to SW620 cells (LDH release) ([5]; at 100 μM): no detectable cytotoxicity | Cytotoxicity to SW620 cells (LDH release) ([5]; various concentrations): low cytotoxicity | Inhibition of galectin-3-induced TNFα secretion [6]: dose-dependent inhibition
